Results: patent US8124793B2, “Derivatives of ethylene methanedisulfonate as cancer chemotherapeutic agents” (priority 2007, dated 2012)

Experiments:
Format in all cases: cell-based
MDA-MB-435 = assay: NCI screen, growth of human tumor cells: Breast Cancer MDA-MB-435; settings: MDA-MB-435 (Breast Cancer), 10^−4 molar
Procedure, shortened: (§1)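 The NCI screen tests each compound on human cancer cell lines and reports percent growth. Concentrations are given in molar units; the number of data points per compound is sixty at minimum.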

OVCAR-4 = assay: NCI screen, growth of human tumor cells: Ovarian Cancer OVCAR-4; settings: OVCAR-4, 10^−4 molar
Procedure, shortened: as §1

SF-268 = assay: NCI screen, growth of human tumor cells: CNS Cancer SF-268; settings: SF-268 (CNS Cancer), 10^−4 molar
Procedure, shortened: as §1

OVCAR-3 = assay: NCI screen, growth of human tumor cells: Ovarian Cancer OVCAR-3; settings: OVCAR-3 (Ovarian Cancer), 10^−4 molar
Procedure, shortened: as §1

M14 = assay: NCI screen, growth of human tumor cells: Melanoma M14; settings: M14 (Melanoma), 10^−4 molar
Procedure, shortened: as §1

HOP-62 = assay: NCI screen, growth of human tumor cells: Non-Small Cell Lung HOP-62; settings: HOP-62 (Non-Small Cell Lung), 10^−4 molar
Procedure, shortened: as §1

786-0 = assay: NCI screen, growth of human tumor cells: Renal Cancer 786-0; settings: 786-0 (Renal Cancer), 10^−4 molar
Procedure, shortened: as §1

LOXIMVI = assay: NCI screen, growth of human tumor cells: Melanoma LOXIMVI; settings: LOXIMVI (Melanoma), 10^−4 molar
Procedure, shortened: as §1

SW620 = assay: NCI screen, growth of human tumor cells: Colon Cancer SW620; settings: SW620 (Colon Cancer), 10^−4 molar
Method: (§2) In the NCI screening process, each compound was tested and described by a minimum of 60 data points. The test data include, but are not limited to the type of cancer, the molar concentration used in the screen, and the percent growth of the cancer. In some cases, NMR and elemental analysis were used for structural assignment.

human cancer cells = assay: NCI screen summary over the cancers tested (negative growth of human cancer cells); settings: 10^−4 M conc.; cancers with negative growth / cancers tested
Method: as §2
The derivatives in the tables are grouped using the same category as in the tables 1-6.

DU-145 = assay: NCI screen, growth of human tumor cells: Prostate Cancer DU-145; settings: DU-145 (Prostate Cancer), 10^−4 molar
Procedure, shortened: as §1

EKVX = assay: NCI screen, growth of human tumor cells: Non-Small Cell Lung EKVX; settings: EKVX, 10^−4 molar
Procedure, shortened: as §1

UACC-257 = assay: NCI screen, growth of human tumor cells: Melanoma UACC-257; settings: UACC-257 (Melanoma), 10^−4 molar
Procedure, shortened: as §1

MCF7/ADR-RES = assay: NCI screen, growth of human tumor cells: Breast Cancer MCF7/ADR-RES; settings: MCF7/ADR-RES (Breast Cancer), 10^−4 molar
Procedure, shortened: as §1

UACC-62 = assay: NCI screen, growth of human tumor cells: Melanoma UACC-62; settings: UACC-62 (Melanoma), 10^−4 molar
Procedure, shortened: as §1

NCI-H460 = assay: NCI screen, growth of human tumor cells: Non-Small Cell Lung NCI-H460; settings: NCI-H460 (Non-Small Cell Lung), 10^−4 molar
Procedure, shortened: as §1

OVCAR-8 = assay: NCI screen, growth of human tumor cells: Ovarian Cancer OVCAR-8; settings: OVCAR-8 (Ovarian Cancer), 10^−4 molar
Procedure, shortened: as §1

MOLT-4 = assay: NCI screen, growth of human tumor cells: Leukemia MOLT-4; settings: MOLT-4 (Leukemia), 10^−4 molar
Procedure, shortened: as §1

ACHN = assay: NCI screen, growth of human tumor cells: Renal Cancer ACHN; settings: ACHN (Renal Cancer), 10^−4 molar
Procedure, shortened: as §1

HCT-116 = assay: NCI screen, growth of human tumor cells: Colon Cancer HCT-116; settings: HCT-116 (Colon Cancer), 10^−4 molar
Procedure, shortened: as §1

RXF-393 = assay: NCI screen, growth of human tumor cells: Renal Cancer RXF-393; settings: RXF-393 (Renal Cancer), 10^−4 molar
Procedure, shortened: as §1

HCT-15 = assay: NCI screen, growth of human tumor cells: Colon Cancer HCT-15; settings: HCT-15 (Colon Cancer), 10^−4 molar
Procedure, shortened: as §1

IGROVI = assay: NCI screen, growth of human tumor cells: Ovarian Cancer IGROVI; settings: IGROVI (Ovarian Cancer), 10^−4 molar
Procedure, shortened: as §1

NCI-H522 = assay: NCI screen, growth of human tumor cells: Non-Small Cell Lung NCI-H522; settings: NCI-H522, 10^−4 molar
Procedure, shortened: as §1

NCI-H322M = assay: NCI screen, growth of human tumor cells: Non-Small Cell Lung NCI-H322M; settings: NCI-H322M (Non-Small Cell Lung), 10^−4 molar
Procedure, shortened: as §1

SK-MEL-5 = assay: NCI screen, growth of human tumor cells: Melanoma SK-MEL-5; settings: SK-MEL-5 (Melanoma), 10^−4 molar
Procedure, shortened: as §1

BT-549 = assay: NCI screen, growth of human tumor cells: Breast Cancer BT-549; settings: BT-549 (Breast Cancer), 10^−4 molar
Procedure, shortened: as §1

OVCAR-5 = assay: NCI screen, growth of human tumor cells: Ovarian Cancer OVCAR-5; settings: OVCAR-5 (Ovarian Cancer), 10^−4 molar
Procedure, shortened: as §1

RPMI-8226 = assay: NCI screen, growth of human tumor cells: Leukemia RPMI-8226; settings: RPMI-8226 (Leukemia), 10^−4 molar
Procedure, shortened: as §1

SN12C = assay: NCI screen, growth of human tumor cells: Renal Cancer SN12C; settings: SN12C (Renal Cancer), 10^−4 molar
Procedure, shortened: as §1

HS 578T = assay: NCI screen, growth of human tumor cells: Breast Cancer HS 578T; settings: HS 578T (Breast Cancer), 10^−4 molar
Procedure, shortened: as §1

SNB-19 = assay: NCI screen, growth of human tumor cells: CNS Cancer SNB-19; settings: SNB-19 (CNS Cancer), 10^−4 molar
Procedure, shortened: as §1

MDA-N = assay: NCI screen, growth of human tumor cells: Breast Cancer MDA-N; settings: 10^−4 molar
Method: as §2

NCI-H23 = assay: NCI screen, growth of human tumor cells: Non-Small Cell Lung NCI-H23; settings: NCI-H23, 10^−4 molar
Procedure, shortened: as §1

CAKI-1 = assay: NCI screen, growth of human tumor cells: Renal Cancer CAKI-1; settings: CAKI-1 (Renal Cancer), 10^−4 molar
Procedure, shortened: as §1

MDA-MB-231/ATCC = assay: NCI screen, growth of human tumor cells: Breast Cancer MDA-MB-231/ATCC; settings: MDA-MB-231/ATCC (Breast Cancer), 10^−4 molar
Procedure, shortened: as §1

NCI-H226 = assay: NCI screen, growth of human tumor cells: Non-Small Cell Lung NCI-H226; settings: NCI-H226 (Non-Small Cell Lung), 10^−4 molar
Procedure, shortened: as §1

SF-539 = assay: NCI screen, growth of human tumor cells: CNS Cancer SF-539; settings: SF-539 (CNS Cancer), 10^−4 molar
Procedure, shortened: as §1

SK-MEL-28 = assay: NCI screen, growth of human tumor cells: Melanoma SK-MEL-28; settings: SK-MEL-28 (Melanoma), 10^−4 molar
Procedure, shortened: as §1

HT29 = assay: NCI screen, growth of human tumor cells: Colon Cancer HT29; settings: HT29 (Colon Cancer), 10^−4 molar
Procedure, shortened: as §1

MCF 7 = assay: NCI screen, growth of human tumor cells: Breast Cancer MCF 7; settings: MCF 7 (Breast Cancer), 10^−4 molar
Procedure, shortened: as §1

U-251 = assay: NCI screen, growth of human tumor cells: CNS Cancer U-251; settings: U-251 (CNS Cancer), 10^−4 molar
Procedure, shortened: as §1

HCC-2998 = assay: NCI screen, growth of human tumor cells: HCC-2998 (listed under Non-Small Cell Lung); settings: HCC-2998, 10^−4 molar
Procedure, shortened: as §1

## CCOCC1(COCC)S(=O)(=O)OCCOS1(=O)=O [NSC 698120]
MDA-MB-435
  percent of growth of human tumor cells: 1%
OVCAR-4
  % Growth: −88%
SF-268
  percent of growth of human tumor cells: 21%
OVCAR-3
  percent of growth of human tumor cells: −13%
M14
  percent of growth of human tumor cells: −36%
HOP-62
  percent of growth of human tumor cells: 23%
786-0
  percent of growth of human tumor cells: 15%
LOXIMVI
  percent of growth of human tumor cells: −25%
SW620
  percent of growth of human tumor cells: −3%
Human cancer cells
  Percentage of cancers showing negative growth cancers tested: 10^−4 M conc. = 22/42 = 52%
DU-145
  percent of growth of human tumor cells: 24%
EKVX
  % Growth: −99%
UACC-257
  percent of growth of human tumor cells: −14%
MCF7/ADR-RES
  percent of growth of human tumor cells: −26%
UACC-62
  percent of growth of human tumor cells: −36%
NCI-H460
  percent of growth of human tumor cells: −38%
OVCAR-8
  percent of growth of human tumor cells: −43%
MOLT-4
  percent of growth of human tumor cells: 23%
ACHN
  percent of growth of human tumor cells: 18%
HCT-116
  percent of growth of human tumor cells: −6%
RXF-393
  percent of growth of human tumor cells: −36%
HCT-15
  percent of growth of human tumor cells: −27%
IGROVI
  percent of growth of human tumor cells: −28%
NCI-H522
  % Growth: −83%
NCI-H322M
  percent of growth of human tumor cells: 20%
SK-MEL-5
  percent of growth of human tumor cells: 25%
BT-549
  percent of growth of human tumor cells: −4%
OVCAR-5
  percent of growth of human tumor cells: −28%
RPMI-8226
  percent of growth of human tumor cells: 10%
SN12C
  percent of growth of human tumor cells: 24%
HS 578T
  percent of growth of human tumor cells: 15%
SNB-19
  percent of growth of human tumor cells: 14%
MDA-N
  percent of growth of human tumor cells: 3%
NCI-H23
  % Growth: −72%
CAKI-1
  percent of growth of human tumor cells: 7%
MDA-MB-231/ATCC
  percent of growth of human tumor cells: 18%
NCI-H226
  percent of growth of human tumor cells: 0%
SF-539
  percent of growth of human tumor cells: 20%
SK-MEL-28
  percent of growth of human tumor cells: 12%
HT29
  percent of growth of human tumor cells: −3%
MCF 7
  percent of growth of human tumor cells: 27%
U-251
  percent of growth of human tumor cells: −47%
HCC-2998
  % Growth: −92%
